The assay deals with T1, human flk-1 (Homo sapiens, UniProt P35968).
T1 construct: host or cells: Flk-1/NIH cells (NIH fibroblasts)
The assay is described as follows: Biochemical FLK-1 assay (flk-1 autophosphorylation ELISA). To be noted: read-out: bio FLK1 IC50 (μM) % if inhibition at 100. The method, then: This assay evaluates flk-1 autophosphorylation activity in vitro using ELISA.
Materials And Reagents • 1. 15 cm tissue culture dishes • 2. Flk-1/NIH cells: NIH fibroblast line over-expressing human flk-1clone 3 (SUGEN, Inc., obtained from MPI, Martinsried, Germany). • 3. Growth medium: DMEM plus heat inactivated 10% FBS and 2 mM Glutamine (Gibco-BRL). • 4. Starvation medium: DMEM plus 0.5% heat-inactivated FBS, 2 mM Glutamine (Gibco-BRL). • 5. […] L4 or E38 monoclonal antibody specific for flk-1, Purified by Protein-A agarose affinity chromatography (SUGEN, Inc.). • 7. PBS (Dulbecco's Phosphate-Buffered Saline) Gibco Cat. No. 450-1300EB). • 8. HNTG (see BIOCHEMICAL FGFR for preparation). • 9. Pierce BCA protein determination kit. • 10. Blocking buffer • 11. TBST (pH 7.0) • 12. Kinase Buffer • 13. Kinase Stop Solution: 200 mM EDTA. • 14. […] AB kit (Vector Laboratories Cat. No. PK 4000). • 16. DMSO • 17. NUNC 96-well V bottom polypropylene plates (Applied Scientific Cat. No. AS-72092). • 18. Turbo-TMB (Pierce). • 19. Turbo-TMB stop solution: 1 M H2SO4. • 20. ATP (Sigma Cat. No. A-7699). • 21. 20% DMSO in TBS (pH 7.0). Procedure
Cell Growth and Lysate Preparation. • 1. Seed cell into growth medium and grow for 2-3 days to 90-100% confluency at 37° C. and 5% CO2.
2. Remove the medium and wash the cells twice with PBS. Lyse with HNTG lysis buffer. Collect all lysates and vortex mix them for 20-30 seconds. • 3. Remove insoluble material by centrifugation (5-10 min at about 10,000 ×g). • 4. Determine the protein concentration using BCA kit. • 5. Partition lysate into 1 mg aliquots, store at −80° C.
Assay Procedure • 1. Coat Corning 96-well ELISA plates with 2 μg/well purified L4 (or E 38) in 100 μl of PBS. Store overnight at […] • 2. Remove unbound proteins from wells by inverting the plate to remove the liquid. Wash one time with dH2O, pat plate on paper towel to remove excess liquid. • 3. Block plates with 150 μl blocking buffer per well. Incubate for 45-60 minutes with shaking at 4° C. • 4. Remove the blocking buffer and wash the ELISA plate three times with dH2O and one time with TBST. Pat plate on paper towel to remove excess liquid. • 5. Dilute lysate in PBS to give final concentration of 50 μg/100 μl. Add 100 μl of diluted lysate to each well. Incubate with shaking at 4° C. overnight. • 6. Remove unbound proteins from wells by inverting the plate. Wash as in step 4. • 7. Add 80 μl of kinase buffer to wells (90 μl to negative control wells). • 8. Dilute test compounds (normally 10-fold) into wells of a polypropylene plate containing 20% DMSO in TBS. • 9. Add 10 μl of the diluted compounds to the ELISA wells containing immobilized flk-1 and shake. Control wells receive no compounds. • 10. From stock 1 mM ATP, prepare 0.3 mM ATP solution in dH2O (alternatively, kinase buffer may be used). • 11. Add 10 μl of 0.3 mM ATP to all wells except the negative controls. Incubate for 60 min. at room temperature with shaking. • 12. After 1 hr stop the kinase reaction by adding 11 μl 200 mM EDTA. Shake for 1-2 min. • 13. Wash the ELISA plate 4 times with dH2O and twice with TBST. • 14. Add 100 μl of 1:5000 biotinylated 4G10:TBST to all wells. Incubate 45 min with shaking at room temperature. • 15. While the above is incubating, add 50 μl of solutions A & B from the ABC kit to 10 ml of TBST. These solutions must be combined approximately 30 min prior to use. • 16. Wash plates as in step 4. • 17. Add 100 μl of the preformed A & B complex to all wells. Incubate 30 min with shaking at room temperature. • 18. Wash plates as in step 4. • 19. Add 100 μl turbo-TMB. Shake at room temperature for 10-15 min. • 20. When the color in the positive control wells reaches an absorbance of about 0.35-0.4, stop the reaction with 100 μl of turbo-TMB stop solution. • 21. Read plates on Dynatech MR7000 ELISA reader, test filter: 450 nM, reference filter: 410 nM.
(In general: In an ELISA, binding on a coated surface is turned into a signal by an enzyme label.)

Structures are written as SMILES. Where a name gives a salt, the structure may show the parent alone.

T1 sequence (P35968 20-1356): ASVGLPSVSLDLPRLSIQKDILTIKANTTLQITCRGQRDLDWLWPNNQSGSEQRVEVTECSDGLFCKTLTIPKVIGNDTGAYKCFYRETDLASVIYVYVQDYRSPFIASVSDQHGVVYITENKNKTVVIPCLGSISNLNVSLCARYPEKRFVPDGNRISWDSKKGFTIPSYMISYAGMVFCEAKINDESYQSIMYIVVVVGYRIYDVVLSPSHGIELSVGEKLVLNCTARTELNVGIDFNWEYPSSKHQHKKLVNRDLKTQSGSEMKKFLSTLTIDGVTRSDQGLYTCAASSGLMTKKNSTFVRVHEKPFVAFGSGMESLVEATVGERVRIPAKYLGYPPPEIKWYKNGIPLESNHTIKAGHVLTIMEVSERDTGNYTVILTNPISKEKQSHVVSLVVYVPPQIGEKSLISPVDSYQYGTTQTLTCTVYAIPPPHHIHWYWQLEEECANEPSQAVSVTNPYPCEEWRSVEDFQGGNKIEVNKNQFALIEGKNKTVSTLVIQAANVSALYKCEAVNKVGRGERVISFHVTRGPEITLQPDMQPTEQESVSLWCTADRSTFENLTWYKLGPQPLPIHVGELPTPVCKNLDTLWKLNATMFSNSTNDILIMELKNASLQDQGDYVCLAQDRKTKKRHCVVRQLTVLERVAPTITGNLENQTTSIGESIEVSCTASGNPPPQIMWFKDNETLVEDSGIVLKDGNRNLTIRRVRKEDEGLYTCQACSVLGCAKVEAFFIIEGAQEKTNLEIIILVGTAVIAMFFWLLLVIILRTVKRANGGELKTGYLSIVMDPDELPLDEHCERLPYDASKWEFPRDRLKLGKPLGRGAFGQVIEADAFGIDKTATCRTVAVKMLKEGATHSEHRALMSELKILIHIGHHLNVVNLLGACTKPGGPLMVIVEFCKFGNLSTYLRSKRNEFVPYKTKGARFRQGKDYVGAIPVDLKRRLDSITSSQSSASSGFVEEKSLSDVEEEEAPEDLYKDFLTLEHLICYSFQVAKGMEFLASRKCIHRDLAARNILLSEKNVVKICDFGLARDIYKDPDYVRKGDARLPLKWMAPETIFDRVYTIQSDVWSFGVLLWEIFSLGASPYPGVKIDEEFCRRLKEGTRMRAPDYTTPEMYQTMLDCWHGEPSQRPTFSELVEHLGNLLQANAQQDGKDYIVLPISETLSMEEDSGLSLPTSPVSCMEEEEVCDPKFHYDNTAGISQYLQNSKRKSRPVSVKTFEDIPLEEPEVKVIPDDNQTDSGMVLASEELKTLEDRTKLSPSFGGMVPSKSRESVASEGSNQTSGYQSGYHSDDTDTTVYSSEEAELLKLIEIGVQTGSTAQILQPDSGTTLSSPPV

For `Cc1c(/C=C2\C(=O)Nc3ccc(C(=O)O)cc32)[nH]c2ccccc12` [Example 156, 3-(3-Methyl-1H-indol-2-ylmethylene)-2-oxo-2,3-dihydro-1H-indole-5-carboxylic acid (piperidine salt)], the IC50 is 4.2 µM.

The IC50 is the concentration needed to halve the response being measured.

These data come from patent US6855730B2, “3-methylidenyl-2-indolinone modulators of protein kinase” (Sugen, Inc., priority 1998, dated 2005).
